Values quoted from earlier work in EP0661967B1, “COMBINED VIRUSTATIC ANTIMEDIATOR (COVAM) TREATMENT OF COMMON COLDS” (UNIVERSITY OF VIRGINIA PATENT FOUNDATION, priority 1991, dated 1993).

Experiments:
rhinovirus [1] = conditions: in vivo
rhinovirus [2] = test system: rhinovirus

Structure (SMILES)	effect on nasal symptoms and nasal mucus production (rhinovirus [1])	mean total symptom scores during four days of treatment (rhinovirus [1])	mean total symptoms score lower than that for the group receiving placebo (rhinovirus [2]; four days of treatment)	mean total symptoms score during the four days of treatment (rhinovirus [2]; loading dose 400 or 500 mg, then 200 or 500 mg three times a day for five days, begun 6 hours after virus challenge, placebo 17.35±2.6, p=0.08)	headache, malais, myalgia, and cough (rhinovirus [2]; treated group versus placebo)
CC(C)[N+]1(C)[C@@H]2CC[C@H]1C[C@@H](OC(=O)C(CO)c1ccccc1)C2 (some centres unmarked) [ipratropium]	mild beneficial effect	10±1.6			
COc1ccc2cc([C@H](C)C(=O)O)ccc2c1 [naproxen]			thirty four	12±1.65	significantly reduced
